Laboratory results taken from patent publication EP0551518A1, “QUINOLINECARBOXYLIC ACID DERIVATIVE” (NIPPON SHINYAKU COMPANY, LIMITED, priority 1990, dated 1992).
Converted amounts (≈) assume the structure as drawn. Where two headings read alike, the source gives them in different places.

What was measured:
Test in all cases: Determination of minimal inhibitory concentration of growth (MIC)-1, agar plate dilution method
Format in all cases: cell-based
[1] = tested on: Escherichia coli KC-14; conditions: Escherichia coli, KC14, 18 h, 10⁶ CFU/ml, 37°C, read-out: MIC
Experimental: (§1) Method: MIC was determined by the agar plate dilution method in accordance with the standard protocol of Japan Society of Chemotherapy (cf. Chemotherapy 29 (1), 76-79, 1981). Each bacterial culture obtained by 18-hour incubation in a sensitivity assay bouillon medium at 37°C was diluted to 10⁶ CFU/ml with the same medium. Using a microplanter, a sensitivity assay agar medium containing the test drug was inoculated with the diluted culture and incubated at 37°C for 18 hours. The MIC value was then determined. As reference drugs, 6-fluoro-1-methyl-4-oxo-7-(1-piperazinyl)-4H-[1,3]thiazeto[3,2-a]quinoline-3-carboxylic acid (referred to as control), ciprofloxacin (CPFX) and ofloxacin (OFLX) were used.

[2] = tested on: Staphylococcus aureus OWPH 2125 (MRSA, PCA^r ); conditions: Staphylococcus aureus, MRSA, 18 h
Experimental: as §1

[3] = tested on: Proteus vulgaris HX-19; conditions: Proteus vulgaris, HX19, 18 h
Experimental: as §1

[4] = tested on: Staphylococcus aureus Smith
Experimental: as §1

[5] = tested on: Staphylococcus aureus 209-P JC-1; conditions: Staphylococcus aureus, 209P, 18 h
Experimental: as §1

[6] = tested on: Micrococcus luteus ATCC 9341
Experimental: as §1

[7] = tested on: Pseudomonas aeruginosa IFO 3445; conditions: Pseudomonas aeruginosa, IFO3445, 18 h
Experimental: as §1

[8] = tested on: Staphylococcus aureus OWPH 1984 (MRSA); conditions: Staphylococcus aureus, MRSA, 18 h
Experimental: as §1

[9] = tested on: Bacillus subtilis ATCC 6633
Experimental: as §1

[10] = tested on: Staphylococcus epider-midis IFO 12993; conditions: Staphylococcus, IFO12993, 18 h
Experimental: as §1

[11] = tested on: Enterococcus faecalis ATCC 29212
Experimental: as §1

[12] = Staphylococcus aureus OWPH 2125 (MRSA, PCA^r), agar plate dilution, 10⁶ CFU/ml, 37°C, 18 hours, read-out: MIC
[13] = Proteus vulgaris HX-19, agar plate dilution, 10⁶ CFU/ml, 37°C, 18 hours, read-out: MIC
[14] = Staphylococcus aureus Smith, agar plate dilution, 10⁶ CFU/ml, 37°C, 18 hours, read-out: MIC
[15] = Staphylococcus aureus 209-P JC-1, agar plate dilution, 10⁶ CFU/ml, 37°C, 18 hours, read-out: MIC
[16] = ATCC9341, Micrococcus luteus ATCC 9341, agar plate dilution, 10⁶ CFU/ml, 37°C, 18 hours, read-out: MIC
[17] = Pseudomonas aeruginosa IFO 3445, agar plate dilution, 10⁶ CFU/ml, 37°C, 18 hours, read-out: MIC
[18] = Staphylococcus aureus OWPH 1984 (MRSA), agar plate dilution, 10⁶ CFU/ml, 37°C, 18 hours, read-out: MIC
[19] = ATCC6633, Bacillus subtilis ATCC 6633, agar plate dilution, 10⁶ CFU/ml, 37°C, 18 hours, read-out: MIC
[20] = Staphylococcus epider-midis IFO 12993, agar plate dilution, 10⁶ CFU/ml, 37°C, 18 hours, read-out: MIC
[21] = ATCC29212, Enterococcus faecalis ATCC 29212, agar plate dilution, 10⁶ CFU/ml, 37°C, 18 hours, read-out: MIC

Row | SMILES | MIC [1] [µg/mL] | MIC [2, 12] [µg/mL] | MIC [3, 13] [µg/mL] | MIC [4, 14] [µg/mL] | MIC [5, 15] [µg/mL] | MIC [6, 16] [µg/mL] | MIC [7, 17] [µg/mL] | MIC [8, 18] [µg/mL] | MIC [9, 19] [µg/mL] | MIC [10, 20] [µg/mL] | MIC [11, 21] [µg/mL] | other results
1 | O=C(O)c1cn(C2CC2)c2cc(N3CCNCC3)c(F)cc2c1=O [CPFX, ciprofloxacin, reference compound] | 0.025 (≈ 0.0754 µM) | – | – | – | – | – | – | – | – | – | – | MIC [2]: 12.5 µg/mL (≈ 37.7 µM); MIC [3]: 0.025 µg/mL (≈ 0.0754 µM); MIC ([4]; Staphylococcus aureus, 18 h): 0.2 µg/mL (≈ 0.604 µM); MIC [5]: 0.2 µg/mL (≈ 0.604 µM); MIC ([6]; Micrococcus luteus, ATCC9341, 18 h): 0.39 µg/mL (≈ 1.18 µM); MIC [7]: 0.2 µg/mL (≈ 0.604 µM); MIC [8]: 0.39 µg/mL (≈ 1.18 µM); MIC ([9]; Bacillus subtilis, ATCC6633, 18 h): 0.05 µg/mL (≈ 0.151 µM); MIC [10]: 0.39 µg/mL (≈ 1.18 µM); MIC ([11]; Enterococcus faecalis, ATCC29212, 18 h): 1.56 µg/mL (≈ 4.71 µM)
2 | CC1Sc2c(C(=O)O)c(=O)c3cc(F)c(-c4ccccc4)cc3n21 (centres unmarked) [Example 5, 6-Fluoro-1-methyl-4-oxo-7-phenyl-4H-[1,3]thiazeto[3,2-a]quinoline-3-carboxylic acid] | 0.1 (≈ 0.293 µM) | 0.05 (≈ 0.146 µM) | 0.05 (≈ 0.146 µM) | ≤ 0.006 | 0.025 (≈ 0.0732 µM) | 0.39 (≈ 1.14 µM) | 0.2 (≈ 0.586 µM) | 0.012 (≈ 0.0352 µM) | ≤ 0.006 | 0.025 (≈ 0.0732 µM) | 0.1 (≈ 0.293 µM) | –
3 | O=C(O)c1c2n(c3cc(-c4ccccc4)c(F)cc3c1=O)CS2 [Example 18, 6-Fluoro-4-oxo-7-phenyl-4H-[1,3]thiazeto[3,2-a]quinoline-3-carboxylic acid] | 0.2 (≈ 0.611 µM) | 0.2 (≈ 0.611 µM) | 0.025 (≈ 0.0764 µM) | ≤ 0.006 | 0.012 (≈ 0.0367 µM) | 6.25 (≈ 19.1 µM) | 0.39 (≈ 1.19 µM) | 0.025 (≈ 0.0764 µM) | ≤ 0.006 | 0.1 (≈ 0.305 µM) | 0.39 (≈ 1.19 µM) | –
4 | O=C(O)c1c2n(c3c(F)c(-c4ccccc4)c(F)cc3c1=O)CS2 [Example 19, 6,8-Difluoro-4-oxo-7-phenyl-4H-[1,3]thiazeto[3,2-a]quinoline-3-carboxylic acid] | 0.1 (≈ 0.29 µM) | 0.2 (≈ 0.579 µM) | 0.012 (≈ 0.0347 µM) | ≤ 0.006 | 0.012 (≈ 0.0347 µM) | 6.25 (≈ 18.1 µM) | 0.78 (≈ 2.26 µM) | 0.025 (≈ 0.0724 µM) | ≤ 0.006 | 0.025 (≈ 0.0724 µM) | 0.2 (≈ 0.579 µM) | –

Second part, led by results:

Row | MIC [1] [µg/mL] | MIC [2, 12] [µg/mL] | MIC [3, 13] [µg/mL] | MIC [4, 14] [µg/mL] | MIC [5, 15] [µg/mL] | MIC [6, 16] [µg/mL] | MIC [7, 17] [µg/mL] | MIC [8, 18] [µg/mL] | MIC [9, 19] [µg/mL] | MIC [10, 20] [µg/mL] | MIC [11, 21] [µg/mL] | SMILES | other results
5 | 0.05 (≈ 0.138 µM) | 6.25 (≈ 17.3 µM) | 0.05 (≈ 0.138 µM) | 0.2 (≈ 0.553 µM) | 0.39 (≈ 1.08 µM) | 3.13 (≈ 8.66 µM) | 0.78 (≈ 2.16 µM) | 0.39 (≈ 1.08 µM) | 0.1 (≈ 0.277 µM) | 0.39 (≈ 1.08 µM) | 1.56 (≈ 4.32 µM) | CC1COc2c(N3CCN(C)CC3)c(F)cc3c(=O)c(C(=O)O)cn1c23 (racemic) [OFLX, ofloxacin, reference compound] | –
6 | 0.78 (≈ 2.18 µM) | 0.39 (≈ 1.09 µM) | 0.39 (≈ 1.09 µM) | 0.05 (≈ 0.14 µM) | 0.05 (≈ 0.14 µM) | 3.13 (≈ 8.76 µM) | 6.25 (≈ 17.5 µM) | 0.025 (≈ 0.07 µM) | 0.025 (≈ 0.07 µM) | 0.05 (≈ 0.14 µM) | 0.39 (≈ 1.09 µM) | COc1c(-c2ccccc2)c(F)cc2c(=O)c(C(=O)O)c3n(c12)CS3 [Example 21, 6-Fluoro-8-methoxy-4-oxo-7-phenyl-4H-[1,3]thiazeto[3,2-a]quinoline-3-carboxylic acid] | –
7 | 0.2 (≈ 0.557 µM) | 0.05 (≈ 0.139 µM) | 0.1 (≈ 0.278 µM) | ≤ 0.006 | 0.012 (≈ 0.0334 µM) | 0.39 (≈ 1.09 µM) | 0.39 (≈ 1.09 µM) | 0.012 (≈ 0.0334 µM) | ≤ 0.006 | 0.012 (≈ 0.0334 µM) | 0.05 (≈ 0.139 µM) | CC1Sc2c(C(=O)O)c(=O)c3cc(F)c(-c4ccccc4)c(F)c3n21 (centres unmarked) [Example 24, 6,8-Difluoro-1-methyl-4-oxo-7-phenyl-4H-[1,3]thiazeto[3,2-a]quinoline-3-carboxylic acid] | –
